In patent US20050074810A1, “Method for non-invasilvely determining the relative levels of two biological substances” (priority 2001, published 2005):
Where two headings read alike, the source gives them in different places. One block for each molecule: values may come before it.

What was measured:
[1] = In vitro reverse iontophoretic extraction of mannitol and sodium (Example 3, second experiment); details: pig; for Extracted (mannitol/Na^+) flux (×10^3) ratio / Mannitol flux: pH 7.4
Description: In a second experiment, performed under identical conditions to the first (see FIG. 11), mannitol concentration was 5 mM for the first three hours of experiment, it was then reduced to 3 mM for a subsequent period of one hour and then increased to 10 mM for a subsequent period of one hour.
(§1) During the first 3-hour period, the entire content of the cathode solution was withdrawn every 60 minutes and the chamber was refilled with fresh buffer.
During the second 1-hour period, the 5 mM mannitol donor solution was replaced with 3 mM mannitol, and the cathodal chamber was then sampled every 30 minutes.
During the third 1-hour period, the 3 mM mannitol donor solution was replaced with 10 mM mannitol, and the cathodal chamber was then sampled every 30 minutes.

[2] = In vitro reverse iontophoretic extraction of mannitol and sodium (Example 3, first experiment); details: pig, pH 7.4
Description: The anode was placed in the sub-dermal, “donor” chamber, which contained a physiological pH 7.4 buffer (25 mM Tris/TrisHCl+133 mM NaCl) to which the analyte mannitol was added.
In a first experiment, mannitol concentration was 5 mM for the first three hours of experiment and was then increased to 10 mM for a subsequent period of three hours.
(§2) To facilitate the analytical chemistry, the donor solutions were spiked with ^14C-labeled mannitol.
The cathodal (collection) chamber, which contacted the outer surface of the skin contained a 25 mM Tris/TrisHCl buffer at pH 7.4.
as §1
During the second 3-hour period, the 5 mM mannitol donor solution was replaced with 10 mM mannitol, and the cathodal chamber was then sampled every 30 minutes.

[3] = In vitro reverse iontophoretic extraction of mannitol and sodium with varied sodium level (Example 4); details: pig, pH 7.4
Description: The anode was placed in the sub-dermal, “donor” chamber, which contained a physiological pH 7.4 buffer (25 mM Tris/TrisHCl+4 mM KCl).
Both the concentration of the analyte of interest and the internal standard were modified during the experiment.
as §2
(§3) The cathodal (collection) chamber, which contacted the outer surface of the skin, contained a 25 mM Tris/TrisHCl buffer at pH 7.4.
as §1
During the final 1-hour period, the donor solution was replaced with 5 mM mannitol/ 133 mM NaCl, and the cathodal chamber was then sampled every 30 minutes.

[4] = In vitro reverse iontophoretic extraction of glucose, mannitol and sodium (Example 6); type: in vitro ADME, pig
Description: To facilitate the analytical chemistry, the donor solutions were spiked with tritiated glucose and ^14C-labeled mannitol.
as §3
The experimental design was identical to that in FIG. 11, with the exception that both tritiated glucose and ^14C-labeled mannitol were present in the ‘donor’ anode chamber.
During this period, the entire content of the cathode solution was withdrawn every 60 minutes and the chamber was refilled with fresh buffer.

[5] = Description: Every hour, the entire content of the cathode solution was withdrawn and the chamber refilled with fresh buffer.
Three replicates were performed for each lithium concentration.

- K (Qmann/QNa^+=K.[mann]/[Na^+], slope of FIG. 15b) [1]: 0.07
- Extracted (mannitol/Na^+) flux (×10^3) ratio ([1]; 60 min, 5 mM): 1.52 ± 0.4 ×10^3
- Mannitol flux ([1]; 60 min, 5 mM): 13.5 ± 4.1 nmol · h^−1 · cm^−2
- Extracted (mannitol/Na^+) flux (×10^3) ratio ([1]; 120 min, 5 mM): 2.5 ± 0.3 ×10^3
- Mannitol flux ([1]; 120 min, 5 mM): 25.8 ± 4.8 nmol · h^−1 · cm^−2
- Extracted (mannitol/Na^+) flux (×10^3) ratio ([1]; 180 min, 5 mM): 2.7 ± 0.3 ×10^3
- Mannitol flux ([1]; 180 min, 5 mM): 27.8 ± 4.4 nmol · h^−1 · cm^−2
- Extracted (mannitol/Na^+) flux (×10^3) ratio ([1]; 210 min, 3 mM): 1.5 ± 0.2 ×10^3
- Mannitol flux ([1]; 210 min, 3 mM): 16.6 ± 3.2 nmol · h^−1 · cm^−2
- Extracted (mannitol/Na^+) flux (×10^3) ratio ([1]; 240 min, 3 mM): 1.5 ± 0.5 ×10^3
- Mannitol flux ([1]; 240 min, 3 mM): 14.1 ± 2.8 nmol · h^−1 · cm^−2
- Extracted (mannitol/Na^+) flux (×10^3) ratio ([1]; 270 min, 10 mM): 5.2 ± 0.5 ×10^3
- Mannitol flux ([1]; 270 min, 10 mM): 49.6 ± 8.4 nmol · h^−1 · cm^−2
- Extracted (mannitol/Na^+) flux (×10^3) ratio ([1]; 300 min, 10 mM): 5.2 ± 0.7 ×10^3
- Mannitol flux ([1]; 300 min, 10 mM): 48.1 ± 8.7 nmol · h^−1 · cm^−2
- Extracted (mannitol/Na^+) flux (×10^3) ratio ([2]; 60 min, 5 mM): 1.7 ± 0.8 ×10^3
- Mannitol flux ([2]; 60 min, 5 mM): 13.3 ± 7.6 nmol · h^−1 · cm^−2
- Extracted (mannitol/Na^+) flux (×10^3) ratio ([2]; 120 min, 5 mM): 2.2 ± 0.3 ×10^3
- Mannitol flux ([2]; 120 min, 5 mM): 21.0 ± 4.7 nmol · h^−1 · cm^−2
- Extracted (mannitol/Na^+) flux (×10^3) ratio ([2]; 180 min, 5 mM): 2.5 ± 0.3 ×10^3
- Mannitol flux ([2]; 180 min, 5 mM): 25.2 ± 4.3 nmol · h^−1 · cm^−2
- Extracted (mannitol/Na^+) flux (×10^3) ratio ([2]; 210 min, 10 mM): 5.0 ± 0.2 ×10^3
- Mannitol flux ([2]; 210 min, 10 mM): 52.2 ± 4.4 nmol · h^−1 · cm^−2
- Extracted (mannitol/Na^+) flux (×10^3) ratio ([2]; 240 min, 10 mM): 5.1 ± 0.5 ×10^3
- Mannitol flux ([2]; 240 min, 10 mM): 53.2 ± 7.7 nmol · h^−1 · cm^−2
- Extracted (mannitol/Na^+) flux (×10^3) ratio ([2]; 270 min, 10 mM): 5.2 ± 0.5 ×10^3
- Mannitol flux ([2]; 270 min, 10 mM): 54.1 ± 6.8 nmol · h^−1 · cm^−2
- Extracted (mannitol/Na^+) flux (×10^3) ratio ([2]; 300 min, 10 mM): 5.5 ± 0.3 ×10^3
- Mannitol flux ([2]; 300 min, 10 mM): 58.1 ± 4.5 nmol · h^−1 · cm^−2
- Extracted (mannitol/Na^+) flux (×10^3) ratio ([2]; 330 min, 10 mM): 5.7 ± 0.4 ×10^3
- Mannitol flux ([2]; 330 min, 10 mM): 60.9 ± 6.8 nmol · h^−1 · cm^−2
- Extracted (mannitol/Na^+) flux (×10^3) ratio ([2]; 360 min, 10 mM): 6.0 ± 0.3 ×10^3
- Mannitol flux ([2]; 360 min, 10 mM): 63.2 ± 6.2 nmol · h^−1 · cm^−2
- Extracted (mannitol/Na^+) flux (×10^3) ratio ([3]; 60 min, 5 mM): 1.2 ± 0.2 ×10^3
- Mannitol flux ([3]; 60 min, 5 mM): 9.7 ± 1.5 nmol · h^−1 · cm^−2
- Extracted (mannitol/Na^+) flux (×10^3) ratio ([3]; 120 min, 5 mM): 2.1 ± 0.1 ×10^3
- Mannitol flux ([3]; 120 min, 5 mM): 22.0 ± 1.6 nmol · h^−1 · cm^−2
- Extracted (mannitol/Na^+) flux (×10^3) ratio ([3]; 180 min, 5 mM): 2.6 ± 0.1 ×10^3
- Mannitol flux ([3]; 180 min, 5 mM): 28.8 ± 1.3 nmol · h^−1 · cm^−2
- Extracted (mannitol/Na^+) flux (×10^3) ratio ([3]; 270 min, 3 mM): 1.6 ± 0.1 ×10^3
- Mannitol flux ([3]; 270 min, 3 mM): 15.9 ± 0.7 nmol · h^−1 · cm^−2
- Extracted (mannitol/Na^+) flux (×10^3) ratio ([3]; 300 min, 3 mM): 1.4 ± 0.1 ×10^3
- Mannitol flux ([3]; 300 min, 3 mM): 15.3 ± 0.7 nmol · h^−1 · cm^−2
- Extracted (mannitol/Na^+) flux (×10^3) ratio ([3]; 330 min, 5 mM): 2.7 ± 0.1 ×10^3
- Mannitol flux ([3]; 330 min, 5 mM): 29.0 ± 0.8 nmol · h^−1 · cm^−2
- Extracted (mannitol/Na^+) flux (×10^3) ratio ([3]; 360 min, 5 mM): 2.6 ± 0.1 ×10^3
- Mannitol flux ([3]; 360 min, 5 mM): 29.3 ± 0.6 nmol · h^−1 · cm^−2
- Extracted flux ratio (10^3×) relative to Na^+ ([4]; Experiment A: subdermal glucose 3 mM, mannitol 7 mM, 60 min): 2.01 ± 0.33 10^3×
- Extracted flux ratio (10^3×) relative to Na^+ ([4]; Experiment A: subdermal glucose 3 mM, mannitol 7 mM, 120 min): 3.21 ± 0.21 10^3×
- Extracted flux ratio (10^3×) relative to Na^+ ([4]; Experiment A: subdermal glucose 3 mM, mannitol 7 mM, 180 min): 3.64 ± 0.31 10^3×
- Extracted flux ratio (10^3×) relative to Na^+ ([4]; Experiment A: subdermal glucose 3 mM, mannitol 7 mM, 240 min): 3.98 ± 0.24 10^3×
- Extracted flux ratio (10^3×) relative to Na^+ ([4]; Experiment A: subdermal glucose 3 mM, mannitol 7 mM, 300 min): 4.29 ± 0.40 10^3×
- Extracted flux ratio (10^3×) relative to Na^+ ([4]; Experiment A: subdermal glucose 3 mM, mannitol 7 mM, 360 min): 4.65 ± 0.26 10^3×
- Extracted flux ratio (10^3×) relative to Na^+ ([4]; Experiment B: subdermal glucose 5 mM, mannitol 5 mM, 60 min): 1.29 ± 0.58 10^3×
- Extracted flux ratio (10^3×) relative to Na^+ ([4]; Experiment B: subdermal glucose 5 mM, mannitol 5 mM, 120 min): 2.13 ± 0.47 10^3×
- Extracted flux ratio (10^3×) relative to Na^+ ([4]; Experiment B: subdermal glucose 5 mM, mannitol 5 mM, 180 min): 2.53 ± 0.41 10^3×
- Extracted flux ratio (10^3×) relative to Na^+ ([4]; Experiment B: subdermal glucose 5 mM, mannitol 5 mM, 240 min): 2.73 ± 0.38 10^3×
- Extracted flux ratio (10^3×) relative to Na^+ ([4]; Experiment B: subdermal glucose 5 mM, mannitol 5 mM, 300 min): 2.98 ± 0.41 10^3×
- Extracted flux ratio (10^3×) relative to Na^+ ([4]; Experiment B: subdermal glucose 5 mM, mannitol 5 mM, 360 min): 3.15 ± 0.30 10^3×
- Extracted flux ratio (10^3×) relative to Na^+ ([4]; Experiment C: subdermal glucose 7 mM, mannitol 3 mM, 60 min): 0.86 ± 0.45 10^3×
- Extracted flux ratio (10^3×) relative to Na^+ ([4]; Experiment C: subdermal glucose 7 mM, mannitol 3 mM, 120 min): 1.38 ± 0.46 10^3×
- Extracted flux ratio (10^3×) relative to Na^+ ([4]; Experiment C: subdermal glucose 7 mM, mannitol 3 mM, 180 min): 1.62 ± 0.44 10^3×
- Extracted flux ratio (10^3×) relative to Na^+ ([4]; Experiment C: subdermal glucose 7 mM, mannitol 3 mM, 240 min): 1.71 ± 0.39 10^3×
- Extracted flux ratio (10^3×) relative to Na^+ ([4]; Experiment C: subdermal glucose 7 mM, mannitol 3 mM, 300 min): 1.83 ± 0.40 10^3×
- Extracted flux ratio (10^3×) relative to Na^+ ([4]; Experiment C: subdermal glucose 7 mM, mannitol 3 mM, 360 min): 1.94 ± 0.36 10^3×
- K (analyte/Na^+ extraction ratio vs sub-dermal concentration ratio, slope of FIG. 22b) ([4]; iontophoresis of 6 hours at 0.5 mA/cm^2): 0.078
- K′ (analyte/Na^+ extraction ratio vs analyte sub-dermal concentration, slope of FIG. 22a) ([4]; iontophoresis of 6 hours at 0.5 mA/cm^2, Na^+ fixed 133 mM): 0.586×10^−3
SMILES: OC[C@@H](O)[C@@H](O)[C@H](O)[C@H](O)CO [Mannitol, mannitol]

SMILES: [Li] [lithium]
- (10^3×) Extracted (lithium/Na^+) flux ratio ([5]; (10^3×) subdermal [lithium]/[Na^+] ratio 3.4, 60 min): 0.71 ± 0.28 ×10^3
- (10^3×) Extracted (lithium/Na^+) flux ratio ([5]; (10^3×) subdermal [lithium]/[Na^+] ratio 3.4, 120 min): 1.38 ± 0.19 ×10^3
- (10^3×) Extracted (lithium/Na^+) flux ratio ([5]; (10^3×) subdermal [lithium]/[Na^+] ratio 3.4, 180 min): 1.54 ± 0.20 ×10^3
- (10^3×) Extracted (lithium/Na^+) flux ratio ([5]; (10^3×) subdermal [lithium]/[Na^+] ratio 3.4, 240 min): 1.80 ± 0.03 ×10^3
- (10^3×) Extracted (lithium/Na^+) flux ratio ([5]; (10^3×) subdermal [lithium]/[Na^+] ratio 3.4, 300 min): 1.62 ± 0.03 ×10^3
- (10^3×) Extracted (lithium/Na^+) flux ratio ([5]; (10^3×) subdermal [lithium]/[Na^+] ratio 6.5, 60 min): 1.48 ± 0.41 ×10^3
- (10^3×) Extracted (lithium/Na^+) flux ratio ([5]; (10^3×) subdermal [lithium]/[Na^+] ratio 6.5, 120 min): 2.65 ± 0.55 ×10^3
- (10^3×) Extracted (lithium/Na^+) flux ratio ([5]; (10^3×) subdermal [lithium]/[Na^+] ratio 6.5, 180 min): 3.13 ± 0.78 ×10^3
- (10^3×) Extracted (lithium/Na^+) flux ratio ([5]; (10^3×) subdermal [lithium]/[Na^+] ratio 6.5, 240 min): 2.79 ± 0.35 ×10^3
- (10^3×) Extracted (lithium/Na^+) flux ratio ([5]; (10^3×) subdermal [lithium]/[Na^+] ratio 6.5, 300 min): 3.13 ± 0.51 ×10^3
- (10^3×) Extracted (lithium/Na^+) flux ratio ([5]; (10^3×) subdermal [lithium]/[Na^+] ratio 10.3, 60 min): 2.28 ± 0.43 ×10^3
- (10^3×) Extracted (lithium/Na^+) flux ratio ([5]; (10^3×) subdermal [lithium]/[Na^+] ratio 10.3, 120 min): 4.45 ± 0.64 ×10^3
- (10^3×) Extracted (lithium/Na^+) flux ratio ([5]; (10^3×) subdermal [lithium]/[Na^+] ratio 10.3, 180 min): 5.25 ± 0.48 ×10^3
- (10^3×) Extracted (lithium/Na^+) flux ratio ([5]; (10^3×) subdermal [lithium]/[Na^+] ratio 10.3, 240 min): 5.64 ± 0.52 ×10^3
- (10^3×) Extracted (lithium/Na^+) flux ratio ([5]; (10^3×) subdermal [lithium]/[Na^+] ratio 10.3, 300 min): 5.45 ± 0.36 ×10^3
- K′ (QLi/QNa=K′.[Li], slope of FIG. 25a) ([5]; pig, pH 7.4): 4.18×10^−3
- K (QLi/QNa=K.[Li]/[Na], slope of FIG. 25b) ([5]; short (5-hour) period of iontophoresis at 0.5 mA/cm^2): 0.56
